Results: patent US6683079B2, “3-(amino-or aminoalkyl) pyridinone derivatives and their use for the treatment of HIV related diseases” (Centre National de la Recherche Scientifique, priority 1998, dated 2004)

The compounds below were run on HIV-1 strain IIIB (assay: Retrovirucidal effect on HIV-1 strain IIIB (Table 3)). Settings: pIC50=-log IC50, IC50 in M.
Assay type: cell-based
Procedure: HIV-1 viral suspensions were obtained by coculture of MT4 cells and H9 cells chronically infected by HIV-ILai isolate. 200 μl of a cell supernatant containing viral particles (HIV-ILai: 100 TCID50) were incubated at room temperature with various concentrations of different inhibitors. After 3 hours, virions were washed through 0.02 μm anopore membrane in 1.5 mL Vectaspin tube (Whatman) for 10 minutes at 5 000 g. Each of the three subsequent washes was performed in the same conditions after the viral concentrate was refilled with 500 μL of RPMI medium. Then, the viral concentrate was readjusted to the initial volume with RPMI plus 10% foetal calf serum (FCS). The residual infectivity was assayed on P4 cells as described by CHARNEAU et al. (1994, J. Mol. Biol., 241, 651-662). Briefly, P4 cells were plated using 100 μL of DMEM medium plus 10% FCS in 96 plate multi-wells at 20×10^5 cells per mL. After overnight incubation at 37° C., the supernatant was discarded and the viral preparation (200 μL) was added. One day later the wells were washed three times in PBS. Each well was refilled with 200 μL of a reaction buffer containing 50 mM Tris-HCl pH 8.5, 100 mM 2-mercaptoethanol, 0.05% Triton X-100 and 5 mM 4-methylumbelliferyl β-D-galactopyranoside (MUG). After 3 hours at 37° C., the level of the reaction was measured in a fluorescence microplate reader.
The retrovirucidal effect of each pyridinone derivative listed in table 3 has been assayed according to the teachings of example 2, excepted that the anti-viral effect has been tested on the two following HIV-1 strains:
a) HIV-1 strain IIIB (see example 2);

Compared with `CCc1c(C)[nH]c(=O)c(N(C)C)c1Cc1ccc(Cl)cc1` [Compound 55], `CCc1c(C)[nH]c(=O)c(N(C)C)c1Cc1cccc(O)c1` [Compound 122] is higher in “HIV1 pIC50 strain IIIB” value: 6.651 for the first, 7.196 for the second.

`CCCCc1cc(Cc2cc(C)cc(C)c2)c(N)c(=O)[nH]1` [Compound 89] and `CCCCc1cc(Cc2cc(C)cc(C)c2)c(N(C)C)c(=O)[nH]1` [Compound 90] are within 0.2 log units of each other in “HIV1 pIC50 strain IIIB” value: 6.237 for the first, 6.359 for the second.

`Cc1cccc(Cc2c3c([nH]c(=O)c2N)CCCC3)c1` [Compound 91] and `Cc1cccc(Cc2c3c([nH]c(=O)c2N)CCC3)c1` [Compound 131] are within 0.2 log units of each other in “HIV1 pIC50 strain IIIB” value: 5.73 for the first, 5.799 for the second.

`Cc1cccc(Cc2c3c([nH]c(=O)c2N(C)C)CCCC3)c1` [Compound 92] and `Cc1cccc(Cc2c3c([nH]c(=O)c2N(C)C)CCC3)c1` [Compound 132] are within 0.2 log units of each other in “HIV1 pIC50 strain IIIB” value: 7.807 for the first, 7.863 for the second.

First: CCc1c(C)[nH]c(=O)c(N(C)C)c1C(=O)c1cccc(C)c1 [Compound 93]
Second: CCc1c(C)[nH]c(=O)c(N(C)C)c1C(=O)c1cccc(CO)c1 [Compound 128]
The “HIV1 pIC50 strain IIIB” value of the first is higher: 8.721 for the first, 7.848 for the second.

Compared with `Cc1cccc(C(=O)c2c(C)c(C)[nH]c(=O)c2N)c1` [Compound 94], `CCc1c(C)[nH]c(=O)c(N)c1C(=O)Cc1cccc(C)c1` [Compound 124] is lower in “HIV1 pIC50 strain IIIB” value: 5.153 for the first, 4.389 for the second.

Compared with `CCc1c(C)[nH]c(=O)c(N(CC)CC)c1C(=O)c1cccc(C)c1` [Compound 95], `CCc1[nH]c(=O)c(N(C)C)c(C(=O)c2cccc(C)c2)c1C` [Compound 108] is lower in “HIV1 pIC50 strain IIIB” value: 8.268 for the first, 7.005 for the second.

Compared with `CCCc1cccc(Cc2c(CC)c(C)[nH]c(=O)c2N)c1` [Compound 103], `CCc1c(C)[nH]c(=O)c(N)c1Cc1cccc(OC)c1` [Compound 120] is lower in “HIV1 pIC50 strain IIIB” value: 5.747 for the first, 5.033 for the second.

First: Cc1cc(C)cc(Cc2c(Cl)c[nH]c(=O)c2N)c1 [Compound 105]
Second: Cc1cc(C)cc(Cc2c(Cl)c[nH]c(=O)c2N(C)C)c1 [Compound 106]
The “HIV1 pIC50 strain IIIB” value of the first is lower: 4.943 for the first, 7.063 for the second.

Going from `CCc1c(C)[nH]c(=O)c(N(C)C)c1Cc1cccc(CO)c1` [Compound 110] to `CCc1c(C)[nH]c(=O)c(N(C)C)c1Cc1cccc2ccccc12` [Compound 116], the “HIV1 pIC50 strain IIIB” value falls from 7.783 to 6.627.

Compared with `CCc1c(C)[nH]c(=O)c(N(C)C)c1C(=O)c1ccc2c(c1)OCCO2` [Compound 112], `CCc1c(C)[nH]c(=O)c(N(C)C)c1Cc1ccc2c(c1)OCCO2` [Compound 135] is higher in “HIV1 pIC50 strain IIIB” value: 6.394 for the first, 6.688 for the second.

Going from `CCc1c(C)[nH]c(=O)c(N)c1Cc1cccc2ccccc12` [Compound 113] to `CCc1c(C)[nH]c(=O)c(N)c1Cc1ccc2c(c1)OCO2` [Compound 141], the “HIV1 pIC50 strain IIIB” value falls from 5.273 to 4.642.

Compared with `Cc1cc(C)cc(Cc2c(C)c(C(C)C)[nH]c(=O)c2N)c1` [Compound 118], `Cc1cc(C)cc(Cc2c(C)c(C(C)C)[nH]c(=O)c2N(C)C)c1` [Compound 119] is higher in “HIV1 pIC50 strain IIIB” value: 4.042 for the first, 6.114 for the second.

First: CCc1c(C)[nH]c(=O)c(N(C)C)c1C(=O)Cc1cccc(C)c1 [Compound 127]
Second: CCc1c(C)[nH]c(=O)c(N(C)C)c1CN(C)c1cc(C)cc(C)c1 [Compound 133]
The “HIV1 pIC50 strain IIIB” value of the first is lower: 4.174 for the first, 4.94 for the second.

Compared with `CCc1c(C)[nH]c(=O)c(N)c1Cc1ccc2c(c1)OCCO2` [Compound 134], `CCc1c(C)[nH]c(=O)c(NC)c1Cc1cccc(C(F)(F)F)c1` [Compound 139] is higher in “HIV1 pIC50 strain IIIB” value: 4.056 for the first, 6.908 for the second.

First: CCc1c(C)[nH]c(=S)c(N(C)C)c1Cc1cc(C)cc(C)c1 [Compound 137]
Second: CCc1c(C)[nH]c(=O)c(N)c1C(=O)c1cccc(C(F)(F)F)c1 [Compound 140]
The “HIV1 pIC50 strain IIIB” value of the first is higher: 7.658 for the first, 5.766 for the second.

For `CCc1c(C)[nH]c(=O)c(N(C)C)c1Cc1nccn1C` [Compound 88], the “HIV1 pIC50 strain IIIB” value was less than 4.
`CCc1c(C)[nH]c(=O)c(N)c1C(=O)c1ccc2c(c1)OCCO2` [Compound 111] was tested, and the “HIV1 pIC50 strain IIIB” value was less than 4.
